± gives the expanded uncertainty stated by the source.
How the values were obtained:
[1] = Crystal; DTA
[2] = Molar enthalpy of transition or fusion; settings: Crystal; DSC

Which results are given for `O=C(Nc1ccc(F)cc1F)c1cccnc1Oc1cccc(C(F)(F)F)c1`?
Normal melting temperature [1]: 162.37 ± 0.61 °C; Molar enthalpy of transition or fusion [2]: 9.42 ± 0.22 kcal/mol
